Common to all, as to format: cell-based
Test [1] concerns broad panel of human pathogens. In words: MIC against the panel of pathogens. As to conditions: panel of pathogens. As for the experimental part:
(§1) Luria-Bertani (LB) media (10 g/L tryptone, 10 g/L NaCl, 5 g/L yeast extract, pH 7.0) was used to grow all bacterial strains, except Streptococcus pyogenes. Streptococcus pyogenes was grown in Mueller-Hinton broth containing 5% (v/v) sheep blood. All bacterial cultures were grown at 37° C. All the E. coli strains were grown while shaking at 200 rpm, while clinical pathogens were incubated without shaking.
(§2) The MIC of all the strains was determined in LB media except Streptococcus pyogenes, which was grown in Mueller-Hinton media containing 5% (v/v) sheep blood. The micro-dilution method was utilized in 96-well clear flat-bottom plates (100 μL/well) according to the CLSI guidelines. All strains were grown at 37° C. for 16-18 hours in presence of various concentrations of compound. The MIC was determined by a visual inspection and experiments were performed in triplicate.

The next test concerns Acinetobacter baumannii. In words: MIC micro-dilution. As for the experimental part: as §1, §2
A further test deals with Enterobacter aerogenes. In words: MIC micro-dilution. To be noted: Klebsiella aerogenes. As for the experimental part: as §1, §2
A general note: In broth dilution the organism is exposed to a series of concentrations in liquid medium.

A further test has as its system Klebsiella pneumoniae. In words: MIC micro-dilution. On the procedure: as §1, §2
The test system of another test is Pseudomonas aeruginosa. In words: MIC micro-dilution. On the procedure: as §1, §2
The next test has as its system Morganella morganii. In words: MIC micro-dilution. As for the experimental part:
as §1, §2

A further test has as its system Salmonella typhimurium. Nature of the test: MIC micro-dilution. To be noted: Salmonella enterica. As for the experimental part:
as §1, §2

In another test the test system is E. coli BW25113 ΔtolC. In words: MIC micro-dilution. To be noted: Escherichia coli, LB media, 37° C., 16-18 hours. On the procedure:
as §1, §2

Another test concerns Edwardsiella tarda. In words: MIC micro-dilution. As for the experimental part: as §1, §2
The subject of another test is Shigella boydii. Nature of the test: MIC micro-dilution. To be noted: LB media, 37° C., 16-18 hours, read-out: MIC. As for the experimental part:
as §1, §2

Another test concerns Vibrio cholerae. Nature of the test: MIC micro-dilution. On the procedure: as §1, §2
In a further test the test system is E. coli BW25113. Nature of the test: MIC micro-dilution. As to conditions: Escherichia coli, LB media, 37° C., 16-18 hours. As for the experimental part: as §1, §2
The subject of another test is Staphylococcus aureus. In words: MIC micro-dilution. As for the experimental part: as §1, §2
In another test the test system is Bacillus subtilis 168. Nature of the test: MIC micro-dilution. As for the experimental part:
as §1, §2

[2] abbreviates: LB media, 37° C., 16-18 hours, read-out: MIC.
Where [3] appears, read: Enterobacter aerogenes, LB media, 37° C., 16-18 hours, read-out: MIC.
[4] abbreviates: Salmonella typhimurium, LB media, 37° C., 16-18 hours, read-out: MIC.
Where [5] appears, read: Bacillus subtilis 168, LB media, 37° C., 16-18 hours, read-out: MIC.

Molecules are shown by their SMILES. ≈ marks a conversion by molar mass, not a printed value. Entries after “also recorded” stand apart in the source; their conditions may differ. Where two headings read alike, the source gives them in different places. Bounds are passed on as bounds.

By MIC is commonly meant the lowest concentration that inhibits growth of the organism. As to `NCCc1c[nH]c2ccc(OCCCCCCCc3ccccc3)cc12` [Compound 11], the “MICs compared with Compound 1” value in test [1] is reported as “either the same or 2× different from Compound 1; also recorded: either the same or 2-fold different from 1”. The MIC was 7 µg/mL (≈ 20 µM) with Acinetobacter baumannii (setting [2]); 14 µg/mL (≈ 39.9 µM) in the test on Enterobacter aerogenes (setting [3]); 7 µg/mL (≈ 20 µM) in the test with Klebsiella pneumoniae (setting [2]); 56 µg/mL (≈ 160 µM) in the test with Pseudomonas aeruginosa (setting [2]); more than 112 µg/mL with Morganella morganii (setting [2]); 7 µg/mL (≈ 20 µM) with Salmonella typhimurium (setting [4]). Besides, the minimum inhibitory concentration (MIC) against E. coli BW25113 ΔtolC amounted to 1.8 µg/mL (≈ 5.14 µM); with Edwardsiella tarda (setting [2]) it was 28 µg/mL (≈ 79.9 µM); in the test on Shigella boydii, 7 µg/mL (≈ 20 µM); in the test on Vibrio cholerae, 7 µg/mL (≈ 20 µM); in the test with E. coli BW25113 (E. coli BW25113, read-out: MIC) it was 14 µg/mL (≈ 39.9 µM); in the test with Staphylococcus aureus (setting [2]) it was 3.5 µg/mL (≈ 9.99 µM).
As to `CCCCCCCCCCCCCCCOc1ccc2[nH]cc(CCN)c2c1` [Compound 12], the minimal inhibitory concentration (MIC) with Acinetobacter baumannii, against Enterobacter aerogenes, in the test on Klebsiella pneumoniae, in the test with Pseudomonas aeruginosa, with Morganella morganii and against Salmonella typhimurium (TYPHIMURIUM) was more than 124 µg/mL each time. Moreover, the MIC with E. coli BW25113 ΔtolC is more than 124 µg/mL; against Edwardsiella tarda it was more than 124 µg/mL; with Shigella boydii, more than 124 µg/mL; against Vibrio cholerae, more than 124 µg/mL; with E. coli BW25113 (BW25113, E. coli BW25113), more than 124 µg/mL; against Staphylococcus aureus it was more than 124 µg/mL.
As for `CCCCCCCCCOc1ccc2[nH]cc(CCNC(=O)OC(C)C)c2c1` [Compound 13], the minimum inhibitory concentration (MIC) with Acinetobacter baumannii (setting [2]), in the test on Enterobacter aerogenes (setting [3]), in the test on Klebsiella pneumoniae (setting [2]), with Pseudomonas aeruginosa (setting [2]), in the test with Morganella morganii (setting [2]) and in the test with Salmonella typhimurium (setting [4]) was more than 130 µg/mL each time. For the same compound, the minimum inhibitory concentration (MIC) in the test on E. coli BW25113 ΔtolC is more than 130 µg/mL; with Edwardsiella tarda (setting [2]) it was more than 130 µg/mL; with Shigella boydii, more than 130 µg/mL; in the test on Bacillus subtilis 168 (setting [5]) it was more than 130 µg/mL; in the test with Vibrio cholerae, more than 130 µg/mL; in the test on E. coli BW25113 (E. coli BW25113, read-out: MIC) it was more than 130 µg/mL. Moreover, the MIC in the test on Staphylococcus aureus (setting [2]) is more than 130 µg/mL.
Consider `CCCCCCCCCOc1ccc2[nH]ccc2c1` [Compound 14], for which the MIC in the test with Acinetobacter baumannii (setting [2]), in the test on Enterobacter aerogenes (setting [3]), with Klebsiella pneumoniae (setting [2]), in the test on Pseudomonas aeruginosa (setting [2]), in the test on Morganella morganii (setting [2]) and with Salmonella typhimurium (setting [4]) was more than 83 µg/mL throughout. Besides, the MIC against E. coli BW25113 ΔtolC is more than 83 µg/mL; with Edwardsiella tarda (setting [2]), more than 83 µg/mL; with Shigella boydii, more than 83 µg/mL; in the test on Bacillus subtilis 168 (setting [5]), more than 83 µg/mL; against Vibrio cholerae, more than 83 µg/mL; in the test with E. coli BW25113 (E. coli BW25113, read-out: MIC), more than 83 µg/mL. The MIC in the test with Staphylococcus aureus (setting [2]) is more than 83 µg/mL.
In the case of `CCCCCCCCCOc1ccc2[nH]cc(CC[N+](C)(C)C)c2c1` [Compound 15], the MIC was 52 µg/mL with Acinetobacter baumannii; 52 µg/mL in the test with Enterobacter aerogenes; 26 µg/mL with Klebsiella pneumoniae; 52 µg/mL in the test on Pseudomonas aeruginosa; more than 104 µg/mL with Morganella morganii; 26 µg/mL against Salmonella typhimurium (TYPHIMURIUM). For the same compound, the MIC against E. coli BW25113 ΔtolC was 6.5 µg/mL; with Edwardsiella tarda it was 26 µg/mL; in the test with Shigella boydii, 26 µg/mL; in the test on Bacillus subtilis 168 (Bacillus subtilis, 168) it was 52 µg/mL; in the test with Vibrio cholerae it was more than 104 µg/mL; in the test on E. coli BW25113 (BW25113, E. coli BW25113), 52 µg/mL. The same compound came in with an MIC in the test with Staphylococcus aureus of 6.5 µg/mL.
As to `CCCCCCCCCOc1cccc(CCN)c1` [Compound 16], the MIC was determined as 5.3 µg/mL (≈ 20.1 µM) in the test on Acinetobacter baumannii; 5.3 µg/mL (≈ 20.1 µM) against Enterobacter aerogenes; 5.3 µg/mL (≈ 20.1 µM) against Klebsiella pneumoniae; 21 µg/mL (≈ 79.7 µM) against Pseudomonas aeruginosa; 11 µg/mL (≈ 41.8 µM) against Morganella morganii; 5.3 µg/mL (≈ 20.1 µM) with Salmonella typhimurium (TYPHIMURIUM). Moreover, the MIC is 2.6 µg/mL (≈ 9.87 µM) with E. coli BW25113 ΔtolC; 5.3 µg/mL (≈ 20.1 µM) against Edwardsiella tarda; 5.3 µg/mL (≈ 20.1 µM) in the test with Shigella boydii; 0.66 µg/mL (≈ 2.51 µM) with Bacillus subtilis 168 (Bacillus subtilis, 168); 5.3 µg/mL (≈ 20.1 µM) against Vibrio cholerae; 5.3 µg/mL (≈ 20.1 µM) against E. coli BW25113 (BW25113, E. coli BW25113). Further, in the test on Staphylococcus aureus, 5.3 µg/mL (≈ 20.1 µM) was the least that counted as inhibitory (MIC).
Turning to `CCCCCCCCCOc1ccc(CCN)cc1` [Compound 17], the MIC came out at 1.3 µg/mL (≈ 4.93 µM) against E. coli BW25113 ΔtolC; 0.66 µg/mL (≈ 2.51 µM) in the test with Bacillus subtilis 168 (Bacillus subtilis, 168); 5.3 µg/mL (≈ 20.1 µM) against E. coli BW25113 (BW25113, E. coli BW25113).
With `CCCCCCCCCOc1cccc(CN)c1` [Compound 18], the MIC in the test with E. coli BW25113 ΔtolC came out at 4.7 µg/mL (≈ 18.8 µM); in the test on Bacillus subtilis 168 (setting [5]), 4.7 µg/mL (≈ 18.8 µM); in the test with E. coli BW25113 (E. coli BW25113, read-out: MIC), 9.4 µg/mL (≈ 37.7 µM).
As for `CCCCCCCCCOc1cccc(N)c1` [Compound 19], the MIC in the test with E. coli BW25113 ΔtolC is 10 µg/mL (≈ 42.5 µM); with Bacillus subtilis 168 (setting [5]), 40 µg/mL (≈ 170 µM); in the test on E. coli BW25113 (E. coli BW25113, read-out: MIC), more than 40 µg/mL.
